Source: US20070003640A1, “Process for controlling the isomerization of (-)-epicatechin and (+)-catechin in edible products” (priority 2005, published 2007)

Assay: Isomerization of (+)-catechin to (+)-epicatechin
Assay type: physicochemical
Conditions: equilibrium mixture from isomerization of (+)-catechin
From the text: While the above examples were specifically directed to the isomerization of (−)-epicatechin to (−)-catechin, it will be understood that the same processes can and will result in the isomerization of (+)-catechin to (+)-epicatechin. It will further be understood that the kinetics for the isomerization of (+)-catechin to (+)-epicatechin are similar to those for the isomerization of (−)-epicatechin to (−)-catechin, viz., the equilibrium point for a given set of temperature and pH parameters is essentially the same for either isomerization, and the equilibrium mixture resulting from the isomerization of (+)-catechin is about 70% (+)-catechin and about 30% (+)-epicatechin, with a molar ratio of (+)-epicatechin to (+)-catechin of about 1:2. Indeed, we have observed that the isomerization of (+)-catechin to (+)-epicatechin favors the same equilibrium point as the isomerization of (−)-epicatechin to (−)-catechin, that is, the molar ration of 1:2 (+)-epicatechin:(+)-catechin.

(+)-catechin in equilibrium mixture: about 70%
(+)-epicatechin in equilibrium mixture: about 30%
Compound: Oc1cc(O)c2c(c1)O[C@H](c1ccc(O)c(O)c1)[C@@H](O)C2 [(+)-catechin]
